Results reported in a melting point compilation (Tetko et al.; mined from patent text by program, amines drawn as free bases though some values may be those of a salt).

Row | Compound | melting point [°C]
1 | CON(C)C(=O)Nc1c(C(=O)c2cc(C)ccn2)[nH]c2cc(Cl)ccc12 | 199 to 200
2 | COc1ccc2c(c1)CC(N(CC(=O)O)C(=O)C(C)CSC(C)=O)CC2 (stereo unspecified) | 147 to 150
3 | O=C(c1ccccc1)N1CCC2(CCc3c2[nH]c2ccccc32)CC1 | 231 to 232
4 | CNC(=NC#N)NCCCSc1nccc(NC(N)=NCC(F)(F)F)n1 | 159 to 160
5 | CCCCCCc1c(Br)c(-c2ccccc2)n(-c2ccc(C)cc2)c1-c1ccccc1 | 86 to 89
6 | Nc1cc(F)ccc1C=C(Br)Br | 72 to 73
7 | Cc1oc(-c2ccccc2)nc1CCCCCO | 40 to 42
8 | CCn1cc([C@]2(c3cccc(-c4cccnc4F)c3)N=C(N)N(C)C2=O)cc1C(C)=O | 109 to 111
9 | O=C(O)c1ccc(C2=NOC(c3cc(Cl)cc(Cl)c3)(C(F)(F)F)C2)cc1 (stereo unspecified) | 237 to 240
10 | O=c1[nH]c2cc([N+](=O)[O-])cnc2n1-c1ccccc1F | 234 to 236
11 | CCN1CCc2cc([N+](=O)[O-])ccc21 | 97 to 98
12 | CCN(CC)CCOc1cccc2c1c1cc(F)ccc1n2Cc1ccc(F)cc1 | 75 to 76
13 | CCC[C@H]1CC[C@H](CCc2ccc(-c3ccc(C#N)cc3F)cc2)CC1 | 89.4
14 | CN1Cc2c(Cl)ncn2-c2ccccc2C1=S | 198
15 | O=C(OCC1CC(O)C(n2cc(F)c(=O)[nH]c2=O)O1)c1ccccc1 (stereo unspecified) | 154 to 156
16 | O=C1CCCc2c1n(CCBr)c1ccc(Cl)cc21 | 121
17 | c1ccc(CNc2nccc3ccccc23)cc1 | 101 to 102
18 | N#Cc1ccc(S(=O)(=O)n2ccc3ccccc32)cc1C#N | 171 to 173
19 | Fc1cccc(COc2ccc(Nc3ncnc4sc(C#Cc5ccccn5)cc34)cc2Cl)c1 | 180
20 | O=[N+]([O-])c1ccc(-c2cccs2)c(-c2cccs2)c1 | 97 to 101
21 | COc1ccc2c(c1)CC(N(C)CCCN1CCc3cc(OC)c(OC)cc3NC1=O)CC2 (stereo unspecified) | 163 to 165
22 | COC(=O)C1=C(N)NC(C)=C([N+](=O)[O-])C1c1ccccc1S(=O)(=O)CCCCCl (stereo unspecified) | 218
23 | CC(C)NC(=N)NC(=N)NOCCCOc1ccc(Cl)cc1 | 98 to 100
24 | Cc1nc(N)nc(N)c1-c1cc(I)ccc1Cl | 232 to 234
25 | CC(C)(C)OC(=O)N1CC=C(c2cnc(COc3ccc(S(C)(=O)=O)cc3)cc2Cl)CC1 | 148 to 150
26 | CC(C)c1ccc2cc(OCCF)ccc2c1 | 46 to 48

Row | Compound | melting point [°C]
27 | CCn1c(Cn2ccnc2-c2cc(F)ccc2F)nc2ncccc21 | 214 to 216
28 | CC(=O)c1ccc(OCc2ccccc2)c2c1OC(C)(C)C(=O)N2 | 124 to 126
29 | O=[N+]([O-])c1ccc(Cl)cc1NC1Cc2ccccc2C1 | 108
30 | CC(C)CNC(=O)c1ccc(C(=O)N2CCC[C@@H]3CCCC[C@H]32)cc1N (relative stereo) | 153 to 155
31 | CC(C)(C)OC(=O)N1CCC(NC(=O)Nc2ccc(OC(F)(F)F)cc2)CC1 | 160 to 162
32 | CCNC(=O)Nc1ccc2c(=O)n(CCCCN3CC=C(c4ccccc4)CC3)c(=O)[nH]c2c1 | 220
33 | CC1=CC(C)(C)Nc2ccc3c(c21)C(=C1SCCCS1)Oc1ccc(F)cc1-3 | 120 to 122
34 | CC(C#N)S[C@H](C)[C@](O)(Cn1cncn1)c1ccc(F)cc1F (stereo partly specified) | 66 to 68
35 | CCOC(=O)c1nn2c(-c3ccc(OC)cc3)nnc2c2ccccc12 | 180 to 182
36 | COc1ccc(-n2c(S)nc3cc(OC)cc(OC)c3c2=O)cc1 | 322 to 326
37 | CC(C)C[C@H](N)C(=O)N1CCN(C(c2ccc(F)cc2)c2ccc(F)cc2)CC1 | 61 to 68
38 | CCC(=O)N(Cc1ccc(OC(F)(F)F)cc1)c1cc(Cl)cc(-c2nnn[nH]2)c1 | 144
39 | CN(C)c1cccc(OCC(=O)C=P(c2ccccc2)(c2ccccc2)c2ccccc2)c1 | 110 to 115
40 | Cc1cccc(N=C2NCCN2C(=O)Nc2ccc(F)cc2)c1 | 178
41 | COC(=O)c1c(C)nn(-c2ccccn2)c1S(N)(=O)=O | 196 to 198
42 | CC(C)(O)Cn1c(CCC2(C)OCCO2)nc2c(N)nc3ccccc3c21 | 231 to 233
43 | OCc1cc2cccc3cc(-c4ccc(O)cc4)c1n23 | 185 to 190
44 | Nc1cc(Nc2cccc(Cl)c2)ncn1 | 171 to 172
45 | CCCCCCCCc1c(N)nc(-n2cncn2)nc1CC | 90 to 91
46 | CC(C)(C)C(=O)C(=C1SCCS1)n1cncn1 | 141
47 | COC(=O)c1cc(I)ccc1N=C=S | 60 to 62
48 | CCOC(=O)C1Cc2cc(OC)c(OC)cc2C(c2ccccc2)N1C(=O)CNC(=O)OC(C)(C)C (stereo unspecified) | 166 to 167
49 | O=C(O)C(O)=CC(=O)c1cc(Cc2ccc(F)cc2)cn(Cc2ccccc2F)c1=O | 182 to 184
50 | CC(C)=CCN1CCc2c(sc(N)c2C(=O)c2ccccc2)C1 | 76 to 78
51 | O=[N+]([O-])c1cc(F)ccc1OCCCCl | 143
52 | COC(=O)CCc1ccc(NC(=O)c2cc(C(C)C)c(C(C)C)o2)cc1 | 93 to 94

Row | Compound | melting point [°C]
53 | CCOC(=O)Nc1c(Cl)cccc1[Si](C)(C)C | 109 to 110
54 | CC(=O)N1CCc2ccc(C(=O)CCC(=O)N3CCC(c4ccc(Cl)cc4)CC3)cc2CC1 | 110 to 112
55 | CCN1C(=O)c2cccnc2N(CC)c2ccccc21 | 108 to 110
56 | COc1cc(OC)c(C(=O)CCCCCl)c(OC)c1 | 53 to 55
57 | FC(F)(F)c1ccc2sc(=Nc3ccccc3)sc2c1 | 122 to 123
58 | CNC(=O)Nc1scc(C(C)(C)C)c1C#N | 212 to 214
59 | CCOC(=O)C1=Cc2cccc(NS(=O)(=O)N(C)C)c2OCC1 | 93 to 96
60 | Cc1cc2oc(N(N)CCC#N)nc2c(C)c1C | 143 to 144
61 | CC(C)(C)OC(=O)NCc1cccc(C(=O)OCC#N)c1O | 144 to 146
62 | CCc1ccccc1N1CCN(C(=S)Nc2nc3ccccc3nc2OC)CC1 | 141 to 143
63 | Cc1cc(Oc2ncc(C(F)(F)F)cc2Cl)nn1C(=O)OC(C)(C)C | 90 to 92
64 | CC(=O)Nc1c(CC(=O)O)cccc1C(=O)c1ccccc1 | 188 to 190
65 | COC(=O)[C@@H]1C(=O)NC[C@H]1c1ccc(Cl)cc1 | 166
66 | O=c1[nH]c2ccccc2n1CCCN1CCC(c2nsc3ccccc23)CC1 | 185 to 187
67 | O=C1c2ccccc2-c2c1c1ccccc1c(=O)n2CCNS(=O)(=O)c1ccc(Br)cc1 | 260 to 263
68 | O=C(c1cc(O)c(O)cc1[N+](=O)[O-])N1CCC(N2CCCCC2)CC1 | 290
69 | CS(=O)c1ncc2cc(Cl)c(N)nc2n1 (stereo unspecified) | 260 to 262
70 | CC(NO)c1ccc2c(c1)Sc1cc(Cl)ccc1O2 (stereo unspecified) | 103 to 105
71 | CCC(Oc1ccc(C)cc1C)C(=O)OC1CC(O)C=C2C=CC(C)C(CCC3CC(O)CC(=O)O3)C21 (mixture of isomers) | 159 to 160
72 | C=C(CC(=O)Nc1cc(Cl)cc(Cl)c1)C(=O)OCCCC | 69.5
73 | CC(C)(C)CC(=O)Nc1ccc2oc3c(c2c1)CCCCCC3 | 157 to 158
74 | Cn1c(CCN2CCN(c3cccc(C(F)(F)F)c3)CC2)nc2cc(Br)c3ccccc3c21 | 165 to 166
75 | NC(=O)N1CCN(CC(O)COc2ccc(Cl)cc2)CC1 (stereo unspecified) | 193 to 196
76 | O=S(=O)(Nc1cccc2cc(-c3ncc(CO)s3)[nH]c12)c1cccs1 | 209 to 210
77 | COc1cc2oc(=O)c(CCO)c(C)c2cc1O | 229 to 235
78 | COc1cc2sc(C#N)cc2cc1OC(F)F | 99 to 101

Row | Compound | melting point [°C]
79 | NCCC(=O)N(N)S(=O)(=O)c1ccccc1 | 135 to 137
80 | O=S(=O)(c1ccc(F)cc1)c1ccc(S)cc1 | 116
81 | CSC(=NC#N)Nc1ccc(C#N)cc1 | 220 to 225
82 | CCC[C@H]1CC[C@H](C(=O)Oc2ccc(-c3ccc(F)cc3)cc2)CC1 | 96
83 | C#CCSc1nn(C(=O)NS(=O)(=O)c2c(C)csc2C(=O)OCC)c(=O)n1C | 175
84 | CCOC(=O)c1cn(Cc2ccccc2OC)c2sc(-c3ccc(N)cc3)c(CN(C)Cc3ccccc3)c2c1=O | 120 to 122
85 | CC(C)OC(=O)C(C)NC(=O)C(N)(CC(=O)O)NC(=O)C(C)C (stereo unspecified) | 176 to 178
86 | CN(CC(=O)O)C(=O)c1cccc2c(Br)cccc12 | 205
87 | CCCc1c(OCCCS(=O)(=O)c2ccc(CC(=O)OC)c(Cl)c2Cl)ccc(C(C)=O)c1O | 115 to 118
88 | CC1=NCCn2cccc21 | 25 to 27
89 | N=C(NO)c1nn(-c2c(Cl)cc(C(F)(F)F)cc2Cl)c(C=NO)c1SC(F)(F)F | 68 to 72
90 | CCCCCCCCOc1ccc(Cl)c2c(=O)c3ccccc3sc12 | 86 to 87.5
91 | CCOC(=O)N1CCN(c2c(F)cc([N+](=O)[O-])c(F)c2CO)CC1 | 147 to 149
92 | CN(C)c1ccc(C(=O)C=Cc2ccc([N+](=O)[O-])cc2)cc1 | 198 to 200
93 | CCN(CC)S(=O)(=O)c1ccccc1S(=O)(=O)N=C(Nc1nc(OC)nc(OC)n1)SC | 150
94 | CCN(CC)C(=O)CCCC1CCN(Cc2cnc3cc(NC(=O)c4ccc(-c5ccc(F)cc5)cc4)c(C)cc3c2)CC1 | 181
95 | O=C(O)c1csnc1-c1cc(C(F)(F)F)cc(C(F)(F)F)c1 | 151 to 154
96 | Cc1ccc2ccn3c(C(F)(F)F)nnc3c2c1 | 205 to 206
97 | Cc1ccccc1Nc1nc2ccc(CC(=O)Nc3ccc(C4(CC(=O)O)CCCC4)cc3)cc2o1 | 123 to 126
98 | C=CCN1CC(c2ccc(NC(=O)OCc3ccccc3)cc2F)CCS1(=O)=O (stereo unspecified) | 138 to 140
99 | Cc1cc(C(=O)N(C2CCCCC2)C2CCCC2)ccc1Cn1cnc2cccnc21 | 181 to 182
100 | CS(=O)(=O)Nc1ccc(Cc2n[nH]c3c2c(=O)n(-c2ccccc2)c2ncccc32)cc1 | 306 to 307
101 | CCC1=NNC(C)=C(C(=O)OCCOC)C1c1cccc([N+](=O)[O-])c1 (stereo unspecified) | 141
